Type in all cases: cell-based, human
Experiment [1] concerns Mewo cells. Briefly: Proliferation inhibition, CellTiter-Glo, Mewo. Conditions: Table D-2, Mewo (NF1 LOF), 3 days, read-out: Prolif. (proliferation EC50). The method, then:
(§1) All cancer cell lines (A375, A101D, A2058, RKO, HT29 SK-MEL 30, IPC298, HepG2, HCT-116, Lovo, SW620, SW480, NCI-H358, NCI-H2122, Calu-6, NCIH2087, NCIH1755, NCIH1666 and Mewo) were obtained from ATCC and cultured in RPM1-1640 medium (Gibco) supplemented with 5% heat inactivated fetal bovine serum (FBS, Wisent) at 37° C. under 5% CO2. Cells were maintained in T175 flasks (Greiner). They were passaged by removing the culture medium, washing once in 10 mL of room temperature Phosphate Buffered Saline (PBS; Wisent) and incubating at 37° C. with 2 mL of 0.05% Trypsin (Thermo-Fisher). Trypsin was then inactivated by adding complete growth medium and the cells were then replated in a T175 culture dish at the appropriate dilution. All cell lines were routinely tested for mycoplasma contamination. Tissue type and mutational status of each cell line can be found in Table B.
(§2) CellTiter-Glo® viability analysis was conducted on cells plated in 100 μL of complete RPMI-1640 growth medium in 96-well flat-bottomed white opaque plates (Greiner or Croning) at a density indicated in Table E (for each CCL, number of cells plated per well of a 96-well plate to perform the CellTiter-Glo® cell viability assay). The cell density in cells/cm^2 would correspond to cell number divided by the area of one well of a 96-well plate (0.32 cm^2). […]
(§3) After 3 days of incubation, the growth media were removed by aspiration and 60 μL of diluted CellTiter-Glo® reagent (10 μL CellTiter-Glo® reagent+50 μL of PBS) was added to each well. […] Luminescence signals were then acquired on a Synergy Neo2 plate reader (Biotek).
(§4) The effect of each compound dilution on the proliferation of cancer cell lines was expressed in % inhibition and calculated as follows. […]
(§5) The ability of each compound to inhibit proliferation was expressed as a EC50 value obtained by plotting the effect values for each data point of a dilution series and fitting the obtained curves using a log(agonist) versus response—variable slope (four parameters) function using GraphPadPrism (V7.0) or Dotmatics Screening Ultra platform.
In general terms: In ATP-based viability assays light output follows the ATP content of the culture.

Experiment [2] concerns pERK, NCIH2087 cells. Briefly: Phospho-ERK inhibition, AlphaLISA p-ERK 1/2, NCIH2087. The note with it: Table D-2; for IC50: NCIH2087 (BRAF L597V; KRAS Q61K); for pERK value in parentheses, % inhibition (Ymin): NCIH2087, lowest point of IC50 curve. The procedure:
as §1
(c) Measurement of Phospho-ERK Inhibition in Cultivated Human Cancer Cell Lines by the AlphaLISA® SureFire® Ultra™ p-ERK 1/2 (Thr2O2/Tyr204)
AlphaLISA® SureFire® Ultra™ p-ERK 1/2 (Thr202/Tyr204) analysis was conducted on cells plated in 100 μL of complete RPMI-1640 growth medium in 96-well flat-bottomed transparent dishes (Costar) at a density indicated in Table C. Cells were maintained overnight at 37° C. under 5% CO2 before treatment with compounds' dilution series for one hour. The cell density in cells/cm^2 corresponds to cell number divided by the area of one well of a 96-well plate (0.143 cm^2).
In a dilution series 100 μL/well of test substance dilution prepared in complete RPMI-1640 growth media was added to the cells. The dilution series is selected so that ten concentrations cover a range from 10 μM to 0.33 nM. If necessary, the initial concentration of 10 μM is increased to 100 μM or lowered to 1 μM (as in the case of A375 and H1666 cells, which are generally more sensitive to the compounds) and further dilution is carried out accordingly. The final concentration of DMSO in the assay is set at 0.5%.
After treatment, media was removed, and cells were lysed in 50 μL of 1× AlphaScreen Ultra Lysis Buffer (Perkin Elmer). The AlphaLISA® SureFire® Ultra™ p-ERK 1/2 (Thr202/Tyr204) (PerkinElmer) reactions were performed with 5 μL of cell lysate according to the manufacturer's specifications in 384-well proxyplates (Perkin Elmer) followed by overnight incubation of the reactions at room temperature in a humidified chamber. After completion of the reactions, the signals were recorded on an EnVision plate reader (Perkin Elmer) using built in AlphaLISA® settings.
The effect of each compound dilution on the pERK signal was expressed in % inhibition and calculated as follows. An internal 100% inhibition control (1 μM trametinib, cat. No. HY-10999; MedChem Express; CAS No. 871700-17-3) was included in each plate and used as a measure of pERK background. First, the value obtained for trametinib was subtracted from each data point. The average of DMSO (vehicle) controls (set as 0% inhibition) was established and used to calculate % inhibition:
The ability of each compound to inhibit pERK signal was expressed as an IC50 value obtained by plotting the inhibition values for each data point of a dilution series and fitting the obtained curves using a log(agonist) versus response—variable slope (four parameters) function using GraphPadPrism (V7.0) or Dotmatics Screening Ultra platform.
When present, paradoxical pERK induction is inferred from the negative % inhibition values observed in the pERK IC50 curves of a compound.

The subject of experiment [3] is NCI-H358 cells. The experiment is described as follows: Proliferation inhibition, CellTiter-Glo, NCI-H358. The note with it: Table D-2, NCI-H358 (KRAS-G12C), 3 days, read-out: Prolif. (proliferation EC50). The method, then:
as §1, §2, §3, §4, §5

Experiment [4] deals with A375 cells. The experiment is described as follows: Proliferation inhibition, CellTiter-Glo, A375. The note with it: Table D-1, A375 (BRAF V600E), 3 days, read-out: Prolif. (proliferation EC50). The method, then: as §1, §2, §3, §4, §5
Experiment [5] concerns NCI-H2122 cells. Briefly: Proliferation inhibition, CellTiter-Glo, NCI-H2122. Conditions: Table D-2, NCI-H2122 (KRAS-G12C), 3 days, read-out: Prolif. (proliferation EC50). The procedure: as §1, §2, §3, §4, §5

Each structure is given as a SMILES string. Like-named read-outs stand apart in the source and are kept apart here. Where only a bound is given, the exact number is not on record here.

What is called IC50 is the concentration that inhibits the measured activity by half. A low value points to inhibition by little substance. `Cc1ccc2c(Nc3cccc(Cl)c3F)nccc2c1NC(=O)c1csc2c(N)ncnc12` [Belvarafenib, reference compound]: the EC50 in experiment [1] (Homo sapiens, 72 h) is 300 to 3000 nM; in experiment [3] (Homo sapiens, 72 h) it was 300 to 3000 nM; in experiment [4] (Homo sapiens, A-375, 72 h) it was under 300 nM; in experiment [5] (Homo sapiens, 72 h), 300 to 3000 nM. The same compound yielded an IC50 in experiment [2] (Homo sapiens, NCI-H2087) of under 30 nM. Further, the “pERK value in parentheses, % inhibition (Ymin)” value (shortened to “pERK value … % inhibition (Ymin)”) in experiment [2] is recorded as 6%.

On to `N#CC1(c2cccc3c2ncn3-c2nc3c(Nc4c(F)ccc(NS(=O)(=O)c5cccc(Cl)c5Cl)c4F)ncnc3s2)CC1` [Example 122], for which the EC50 in experiment [1] is under 300 nM; in experiment [3], under 300 nM; in experiment [4], under 300 nM; in experiment [5] it was 300 to 3000 nM. For the same compound, the IC50 in experiment [2] was under 30 nM. In addition, the “pERK value … % inhibition (Ymin)” value in experiment [2] is recorded as 4%.

On to `Cc1c(F)cccc1S(=O)(=O)Nc1ccc(F)c(Nc2ncnc3sc(-n4cc(C(=O)N5C6CCC5CN(C)C6)c5ccccc54)nc23)c1F` [Example 44], for which the EC50 in experiment [1], in experiment [3], in experiment [4] and in experiment [5] was under 300 nM throughout. The IC50 in experiment [2] is under 30 nM. Further, the “pERK value … % inhibition (Ymin)” value in experiment [2] came out at 4%.

For the origin of these results see patent US20260137697A1, “THIAZOLO[5,4-D]PYRIMIDINE COMPOUNDS, COMPOSITIONS COMPRISING THEM AND USES THEREOF” (University de Montreal, priority 2022, published 2026).
